Patent US4273923A, “Process for preparing aminoglycoside derivatives” (Shionogi & Co., Ltd., priority 1979, dated 1981)
In brackets after ≈: the same amount, converted by molar mass.

How the values were obtained:
[1] = system: Staphylococcus epidermidis TB-302; test: MIC by agar dilution method; type: cell-based; conditions: TB302, innoculum size 10^4 CFU/ml, 37° C., 18 to 20 hours, read-out: Minimum Inhibitory Concentration (MIC)
From the text: (1) Preparation of bacterial suspensions
(3) Determination of MIC values

[2] = system: Escherichia coli W-677/JR 762; test: MIC by agar dilution method; conditions: W677/JR762, 20 h, read-out: Minimum Inhibitory Concentration (MIC)
Procedure: (§1) MIC was determined by the following agar dilution method:
(§2) One loopful of a strain of bacteria to be tested on agar slant was inoculated into a medium for growth of inoculum (Trypto Soy Broth; Eiken Chemical Co.) and incubated at 37° C. overnight.
(§3) (2) Preparation of medium for antibacterial activity test
(§4) A sample solution of aminoglycoside derivative was subjected to serial two-fold dilutions with sterile water. These diluted sample solutions were distributed to the Modified Mueller Hinton Agar medium (Nissui-Seiyaku Co.), mixed gently and allowed to solidify.
(§5) One loopful of the bacterial suspension prepared in (1) was placed on the surface of the medium prepared in (2) containing the aminoglycoside derivative in various concentrations at 10^6 CFU/ml inoculum size.

[3] = system: Klebsiella pneumoniae Kl-168; test: MIC by agar dilution method; conditions: KL168, 20 h, read-out: Minimum Inhibitory Concentration (MIC)
Procedure: as §1, §2, §3, §4, §5

[4] = system: Proteus morganii Morg. 96; test: MIC by agar dilution method; conditions: Morganella morganii, MORG.96, 20 h, read-out: Minimum Inhibitory Concentration (MIC)
Procedure: as §1, §2, §3, §4, §5

[5] = compared with kanamycin A; cited from earlier work

SMILES	MIC [1] [µg/mL]	MIC [2] [µg/mL]	MIC [3] [µg/mL]	MIC [4] [µg/mL]	antimicrobial activity [5]
NC[C@H]1O[C@H](O[C@H]2[C@H](O)[C@@H](O[C@H]3O[C@H](CO)[C@@H](O)[C@H](N)[C@H]3O)[C@H](N)C[C@@H]2N)[C@H](N)C[C@@H]1O [TOB, tobramycin]	3.1 (≈ 6.63 µM)	50 (≈ 107 µM)	100 (≈ 214 µM)	25 (≈ 53.5 µM)	
NCC1=CC[C@@H](N)[C@@H](O[C@H]2[C@H](O)[C@@H](O[C@H]3O[C@H](CO)[C@@H](O)[C@H](N)[C@H]3O)[C@H](N)C[C@@H]2N)O1 [[A], O-[3-amino-3-deoxy-α-D-glucopyranosyl-(1→6)]-O-[2,6-diamino-2,3,4,6-tetradeoxy-α-D-glycero-hex-4-enopyranosyl-(1→4)]-2-deoxy-D-streptamine]	0.2 (≈ 0.445 µM)	12.5 (≈ 27.8 µM)	50 (≈ 111 µM)	12.5 (≈ 27.8 µM)	
NCC[C@H](O)C(=O)N[C@@H]1C[C@H](N)[C@@H](O[C@H]2O[C@H](CN)[C@@H](O)[C@H](O)[C@H]2O)[C@H](O)[C@H]1O[C@H]1O[C@H](CO)[C@@H](O)[C@H](N)[C@H]1O [amikacin]					more potent than kanamycin A
